Measured values taken from patent publication US20110039793A1, “Application of ginsenoside Rb1 in preparing medicaments for treating dilated cardiomyopathy” (priority 2008, published 2011).

Tests used:
[1] = test system: cTnT^R141W transgenic dilated cardiomyopathy mice model; test: Left ventricular ultrastructure, electron microscopy; type: in vivo; settings: long-term administration
Source text: Effects on the left ventricular ultrastructure of the mice model with dilated cardiomyopathy after a long-term administration of ginsenoside Rb1 (electron microscopy)
Fresh myocardial tissues are fixed with 2.5% glutaraldehyde solution, then post-fixed by 1% osmic acid, embedded by Epon812 after the acetone gradient dehydration, wherein the embedded number is five Epon812 per case, ultra-thin sections are double stained by uranyl acetate and lead citrate, and observing by JEM1230 type projection electron microscope. The apparatuses are JEM1230 type projection electron microscope (Japanese Electronics Company), LEICA UCT type microtome (Germany Leica Company).

[2] = test system: cTnT^R141W transgenic dilated cardiomyopathy mice model; test: Cardiac gene expression, RT-PCR method; type: in vivo; settings: cardiac tissue, long-term administration
Experimental: Effects on some cardiac gene expression of the mice model with dilated cardiomyopathy after a long-term administration of ginsenoside Rb1 (RT-PCR method)
1) Pulverize the tissue in liquid nitrogen, and then add 1 ml Trizol liquid into the 50-100 mg tissue;
2) Place the grinded liquid at RT for 5 min, add 0.2 ml chloroform into the grinded liquid, tightly cap the centrifuge tube, and violently vortex the centrifuge tube for 15 sec;
3) Remove 0.5 ml the upper transparent liquid into a new centrifuge tube, add 0.5 ml isopropanol, placed at RT for 10 min, and centrifugate at 4° C., 12000 g for 10 min;
4) Remove the supernatant, add 1 ml 75% ethanol and centrifugate at 4° C., 7500 g for 5 min;
5) Carefully remove the supernatant, then dried at RT for 5-10 min, and then dissolved in DEPC-treated water.
2. RT-PCR (Reverse Transcription—Polymerase Chain Reaction)
Add the above mixture into the tube in step 1), then incubated at 42° C. for 2 min;
3) Add 1 μl SuperScript, II RT at 42° C. for 50 min;
4) Placed on ice for 15 min;
5) Add 1 μl RNase H, then incubated at 37° C. for 20 min;
6) PCR reaction system is shown as follow:
7) General conditions of PCR are shown as follow. Pre-denaturation at 94° C. for […], and extension at 72° C. for […] And the annealing temperature, the annealing time, the primer sequences and the cyclic numbers are shown in Table 2.
wherein, Gapdh serves as the loading control.

For `CC(C)=CCC[C@](C)(O[C@@H]1O[C@H](CO[C@@H]2O[C@H](CO)[C@@H](O)[C@H](O)[C@H]2O)[C@@H](O)[C@H](O)[C@H]1O)[C@H]1CC[C@]2(C)[C@@H]1[C@H](O)C[C@@H]1[C@@]3(C)CC[C@H](O[C@@H]4O[C@H](CO)[C@@H](O)[C@H](O)[C@H]4O[C@@H]4O[C@H](CO)[C@@H](O)[C@H](O)[C@H]4O)C(C)(C)[C@@H]3CC[C@]12C` [Rb1, ginsenoside Rb1], the intercalated disc structure [1] was “clear”, the mitochondrial structures [1] was “most mitochondrial structures are normal” and the myocytes structure [1] was “clear structures”. For the same compound, the sarcoplasmic reticulum [1] was “slightly dilated”, the “expression of Cx40” value [2] was “increase” and the “expression of E-cadherin” value [2] was “increase”. The “expression of Itga8” value [2] was “decrease”, the “expression of Itgbp” value [2] was “decrease” and the “expression of P-cadherin” value [2] was “increase”. For the same compound, the “expression of the fibroblast growth factor FGF” value ([2]; FGF2, 7, 8, 10) was “improve”.
